These results are taken from patent publication US12435087B2, “Modulators of DCN-1 and methods of use thereof” (Cellarity, Inc., priority 2023, dated 2025).

The IC50 is the concentration that inhibits the measured activity by half. For orientation: Emax means the maximal effect, on the per cent scale that the assay sets.

In assay [1] the target is DCN1 (DCUND1) protein PONY domain (Homo sapiens (Human), UniProt Q96GG9). Description: TR-FRET assay (binding to DCN-1, displacement of FAM-labeled probe). The gist of the method: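 Compounds read at 1, 5 and 24 h, 0.1% final DMSO, by TR-FRET between terbium-streptavidin on biotinylated DCN1 PONY domain (E. coli) and a FAM-tagged non-covalent inhibitor probe. Two setups used, 5 nM protein with 20 nM labelled probe, or 0.31 nM protein with 100 nM labelled plus 800 nM unlabelled probe; buffer had TritonX and 200 mM NaCl. % activity relative to high (with probe) and low (without probe) controls.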
DCN1 (DCUND1) protein PONY domain, sequence (Q96GG9 60-248): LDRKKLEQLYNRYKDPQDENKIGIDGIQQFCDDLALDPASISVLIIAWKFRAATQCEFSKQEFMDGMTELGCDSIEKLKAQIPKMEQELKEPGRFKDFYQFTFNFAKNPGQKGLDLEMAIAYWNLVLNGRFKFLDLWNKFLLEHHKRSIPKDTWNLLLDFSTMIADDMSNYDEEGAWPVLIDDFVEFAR
(TR-FRET usually uses a lanthanide donor and a delayed reading to cut background.)

The target in another assay is DCN1 protein (Homo sapiens (Human), UniProt Q96GG9). Description: Intact protein MS analysis with the RapidFire-TOF system (covalent adduct formation). Type of assay: binding. As to conditions: 400 nM DCN1, incubated at room temperature for 3 hours. As to the method: (§1) DCN1 protein, His-TEV-DCN1, were expressed in E. Coli. The His-tagged protein was first purified with an Ni-NTA column. The His-tag was cleaved using His-tag TEV protease and the His-tags were removed using a second Ni-NTA column. Protein purity was verified with SDS-PAGE and intact MS. DCN1 was dissolved in a buffer containing 25 mM Tris-HCl, 200 mM NaCl, and 1 mM DTT at 400 nM. 11 concentrations of compounds were added to the DCN1 solution and incubated at room temperature for 3 hours, unless otherwise specified. The reaction plates were quenched by adding 0.2% formic acid. Quenched assay plates were analyzed with an Agilent RapidFire 360 system connected to an Agilent 6545 Q-TOF mass spectrometer equipped with an AJS source. 10 μL of sample volume was loaded onto a custom packed cartridge (4 μL, PLRP-S 30 μm/1000 Å pore; Optimize Technologies) with loading buffer (ddH2O with 0.09% (vol/vol) formic acid and 0.01% (vol/vol) trifluoroacetic acid; 1.25 ml/min) for 6 seconds before being eluted directly into the mass spectrometer in elution buffer (80% acetonitrile with 0.09% (vol/vol) formic acid and 0.01% (vol/vol) trifluoroacetic acid; 0.5 ml/min) for 7 seconds. The cartridge was re-equilibrated with loading buffer for 1 second before collection of the next sample. The Q-TOF was operated in TOF-only positive ionization mode set to the following parameters: Gas Temp=350 C, Drying Gas=7 l/min, Nebulizer=50 psi, Sheath Gas Temp=400 C, Sheath Gas Flow=12 l/min, VCap=4000 V, Nozzle Voltage=1000 V, Fragmentor=125 V, Skimmer=65 V and Oct 1 RF Vpp=750V. Raw MS data files were deconvoluted and analyzed using the Agilent MassHunter Bioconfirm software package to identify both parent protein and expected compound adduct mass signatures.
DCN1 protein, sequence (Q96GG9 whole entry): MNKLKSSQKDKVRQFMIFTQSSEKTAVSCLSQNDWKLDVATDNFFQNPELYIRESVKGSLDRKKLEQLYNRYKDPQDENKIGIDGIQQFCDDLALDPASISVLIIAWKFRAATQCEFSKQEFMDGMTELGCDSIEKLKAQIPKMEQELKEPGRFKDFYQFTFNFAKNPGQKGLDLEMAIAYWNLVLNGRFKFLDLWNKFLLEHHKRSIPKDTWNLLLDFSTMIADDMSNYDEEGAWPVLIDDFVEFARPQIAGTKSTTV
An MS assay was performed to evaluate the ability of the compounds to covalently modify DCN-1.
as §1, with “Vcap=4000” for “VCap=4000”

[2] abbreviates: 24 hr after treatment with compound, read-out: TR FRET IC50 24 hr.
Setting [3] is: TR FRET IC50 1 hr (nM), 1 hr after treatment with compound.
Setting [4] is: read-out: TR FRET IC50 1 hr, 1 hr after treatment with compound.

Read-outs that look alike come from different tables or passages of the source.

In the case of `C=C(CN1CCN(C2COC2)CC1)C(=O)NCc1cccc([C@@H]2c3cnn(-c4ccccc4)c3N(CC)C(=O)[C@H]2NC(=O)c2cccc(C(F)(F)F)c2)n1` [Compound I-216], the values for the IC50 in assay [1] (setting [2]) and in assay [1] (setting [3]) were not above 200 nM and 200 to 1000 nM, respectively. Moreover, the Emax at DCN1 protein fell in the range of 80 to 100%.
The like results for `C/C=C(\CN1CCN(C2COC2)CC1)C(=O)NCc1cccc([C@@H]2c3cnn(-c4ccccc4)c3N(CC)C(=O)[C@H]2NC(=O)c2nccc(C(F)(F)F)n2)c1` [Compound I-220] were, in that order, not above 200 nM, 200 to 1000 nM and 80 to 100%.
Regarding `C=C(CN1CC(F)(F)C1)C(=O)NCc1cccc([C@@H]2c3cnn(-c4ccccc4)c3N(CC)C(=O)[C@H]2NC(=O)c2cccc(C(F)(F)F)c2)c1` [Compound I-14], the half-maximal inhibitory concentration (IC50) in assay [1] (setting [2]) and in assay [1] (setting [4]) was not above 200 nM throughout. The same compound had an Emax on DCN1 protein of 80 to 100%.
Turning to `C=C(CN(C)C)C(=O)Nc1cccc([C@H]2c3c(C)nn(-c4ccccc4)c3N(CC)C(=O)[C@@H]2NC(=O)c2cccc(C(F)(F)F)c2)c1` (racemic) [Compound I-146], the IC50 in assay [1] (setting [2]) and in assay [1] (setting [4]) was not above 200 nM in each case. The Emax at DCN1 protein lay in the range of 80 to 100%.
For `C=C(CN1CC2(COC2)C1)C(=O)NCc1cccc([C@@H]2c3cnn(-c4ccccc4)c3N(CC)C(=O)[C@H]2NC(=O)c2cccc(C(F)(F)F)c2)c1` [Compound I-6], the IC50 in assay [1] (setting [2]) and in assay [1] (setting [4]) was not above 200 nM throughout. This compound registered an Emax at DCN1 protein of 80 to 100%.
Regarding `CCN1CC=C(C(=O)Nc2cccc([C@@H]3c4c(C)nn(-c5ccccc5)c4N(CC)C(=O)[C@H]3NC(=O)c3ccn(C(F)(F)F)n3)c2)C1` [Compound I-227], the half-inhibitory concentration (IC50) was not above 200 nM in assay [1] (setting [2]) and 200 to 1000 nM in assay [1] (setting [3]). Further, the Emax at DCN1 protein was 80 to 100%.
For `C=C(CN1CCN(C2COC2)CC1)C(=O)N(C)Cc1cccc([C@@H]2c3cnn(-c4ccccc4)c3N(CC)C(=O)[C@H]2NC(=O)c2nccc(C(F)(F)F)n2)c1` [Compound I-223], the IC50 in assay [1] (setting [2]) and in assay [1] (setting [4]) was not above 200 nM throughout. At DCN1 protein, this compound came in with an Emax of 80 to 100%.
With `C/C=C(\CN1CCN(C2COC2)CC1)C(=O)NCc1cccc([C@@H]2c3cnn(-c4ccccc4)c3N(CC)C(=O)[C@H]2NC(=O)c2ccn(C(F)(F)F)n2)c1` [Compound I-230A, N-((4R,5S)-7-ethyl-4-(3-(((E)-2-((4-(oxetan-3-yl)piperazin-1-yl)methyl)but-2-enamido)methyl)phenyl)-6-oxo-1-phenyl-4,5,6,7-tetrahydro-1H-pyrazolo[3,4-b]pyridin-5-yl)-1-(trifluoromethyl)-1H-pyrazole-3-carboxamide], the IC50 in assay [1] (setting [2]) is not above 200 nM; in assay [1] (setting [3]) it was 200 to 1000 nM. This compound displayed an Emax at DCN1 protein of 80 to 100%.
On to `C=C(CN1CCC1)C(=O)Nc1cccc([C@H]2c3c(C)nn(-c4ccccc4)c3N(CC)C(=O)[C@@H]2NC(=O)c2cccc(C(F)(F)F)c2)c1` (racemic) [Compound I-137], for which the IC50 in assay [1] (setting [2]) and in assay [1] (setting [4]) was not above 200 nM throughout. At DCN1 protein, this compound displayed an Emax of 80 to 100%.
As for `C=C(C(=O)NCc1cccc([C@@H]2c3cnn(-c4ccccc4)c3N(CC)C(=O)[C@H]2NC(=O)c2csc(C(F)(F)F)n2)c1)C(C)(C)N(C)C1COC1` [Compound I-231, N-((4R,5S)-7-ethyl-4-(3-((3-methyl-3-(methyl(oxetan-3-yl)amino)-2-methylenebutanamido)methyl)phenyl)-6-oxo-1-phenyl-4,5,6,7-tetrahydro-1H-pyrazolo[3,4-b]pyridin-5-yl)-2-(trifluoromethyl)thiazole-4-carboxamide], the IC50 in assay [1] (setting [2]) and in assay [1] (setting [4]) was not above 200 nM each time. For the same compound, on DCN1 protein, the Emax is 80 to 100%.
With `CCN1C(=O)[C@H](NC(=O)c2cccc(C(F)(F)F)c2)[C@@H](c2ccccc2NC(=O)[C@H](C)Br)c2cnn(-c3ccccc3)c21` (mixture of isomers) [Compound I-72], the IC50 is 200 to 1000 nM in assay [1] (setting [2]) and 1000 to 3000 nM in assay [1] (setting [3]). For the same compound, the Emax at DCN1 protein was in the range of 80 to 100%.
As for `C=CC(=O)Nc1ccccc1[C@H]1c2cnn(-c3ccccc3)c2N(CC)C(=O)[C@@H]1NC(=O)c1cccc(C(F)(F)F)c1` (racemic) [Compound I-190], the Emax on DCN1 protein lay within 30 to 80%.
`C=C(F)C(=O)Nc1ccccc1[C@H]1c2cnn(-c3ccccc3)c2N(CC)C(=O)[C@@H]1NC(=O)c1cccc(C(F)(F)F)c1` (racemic) [Compound I-199] registered an Emax on DCN1 protein of 0 to 30%.
On the same count and under the same terms, to `CCN1C(=O)[C@H](NC(=O)c2cccc(C(F)(F)F)c2)[C@@H](c2ccccc2NC(=O)[C@@H](C)Cl)c2cnn(-c3ccccc3)c21` (mixture of isomers) [Compound I-185] belongs 0 to 30%; to `CCN1C(=O)[C@H](NC(=O)c2cccc(C(F)(F)F)c2)[C@@H](c2cccc(NS(=O)(=O)CCl)c2)c2c(C)nn(-c3ccccc3)c21` (racemic) [Compound I-209], 0 to 30%.
Same read-out and setting: under `C=CS(=O)(=O)Nc1ccccc1[C@H]1c2cnn(-c3ccccc3)c2N(CC)C(=O)[C@@H]1NC(=O)c1cccc(C(F)(F)F)c1` (racemic) [Compound I-166] stands 80 to 100%.
Same read-out and setting: under `CCN1C(=O)[C@H](NC(=O)c2cccc(C(F)(F)F)c2)[C@@H](c2ccccc2NC(=O)/C=C/C(F)(F)F)c2cnn(-c3ccccc3)c21` (racemic) [Compound I-168] stands 0 to 30%.
On DCN1 protein, `CCN1C(=O)[C@@H](NC(=O)c2cccc(C(F)(F)F)c2)[C@H](c2ccccc2NC(=O)CCl)c2cnn(-c3ccccc3)c21` [Compound I-197, N-((4R,5S)-4-(2-(2-chloroacetamido)phenyl)-7-ethyl-6-oxo-1-phenyl-4,5,6,7-tetrahydro-1H-pyrazolo[3,4-b]pyridin-5-yl)-3-(trifluoromethyl)benzamide] registered an Emax of 80 to 100%.
On DCN1 protein, `C=C(CN(C)C)C(=O)Nc1ccccc1[C@H]1c2cnn(-c3ccccc3)c2N(CC)C(=O)[C@@H]1NC(=O)c1cccc(C(F)(F)F)c1` (racemic) [Compound I-177] displayed an Emax of 30 to 80%.
On the same count and under the same terms, to `CCN1C(=O)[C@H](NC(=O)c2cccc(C(F)(F)F)c2)[C@@H](c2cccc(NC(=O)COc3c(F)c(F)cc(F)c3F)c2)c2c(C)nn(-c3ccccc3)c21` (racemic) [Compound I-171] belongs 0 to 30%; to `CCN1C(=O)[C@H](NC(=O)c2cccc(C(F)(F)F)c2)[C@@H](c2ccccc2NC(=O)CCl)c2c(C)nn(-c3ccccc3)c21` (racemic) [Compound I-208], 80 to 100%.
Compound `CCN1C(=O)[C@H](NC(=O)c2cccc(C(F)(F)F)c2)[C@@H](c2ccccc2NC(=O)/C=C/C(=O)OC)c2cnn(-c3ccccc3)c21` (racemic) [Compound I-167] yielded an Emax at DCN1 protein of 80 to 100%.
Turning to `C#CC(=O)Nc1cccc([C@H]2c3c(C)nn(-c4ccccc4)c3N(CC)C(=O)[C@H]2NC(=O)c2cccc(C(F)(F)F)c2)c1` (racemic) [Compound I-173], the Emax on DCN1 protein was 30 to 80%.
Turning to `CCN1C(=O)[C@H](NC(=O)c2cccc(C(F)(F)F)c2)[C@@H](c2ccccc2NC(=O)[C@H](C)Cl)c2c(C)nn(-c3ccccc3)c21` (mixture of isomers) [Compound I-182], the “% Adduct Formation (MS Emax)” value on DCN1 protein is “+ (MS Emax % adduct formation greater than or equal to 0.0 and less than or equal to 30.0)”.
